Measurements taken from patent publication US11161856B2 (H. Lundbeck A/S, priority 2017, dated 2021).

Experiments:
Assay type in all cases: biochemical
[1] = molecular target: T1, MAGL (Homo sapiens, UniProt Q99685); experiment: In vitro competitive activity-based protein profiling (FP-Rh or HT-01 probe, gel-based); parameters: IC50 MGLL PC3 (Human, μM) / IC50 MGLL PFC (Human, μM): scale not given here; conditions: for % Inh MGLL PC3 (Human, μM) / IC50 MGLL PC3 (Human, μM): PC3 cell proteome; for % Inh MGLL PC3 (Human, μM) / % Inh MGLL PFC (Human, μM): concentration not given (μM); for IC50 MGLL PFC (Human, μM) / % Inh MGLL PFC (Human, μM): prefrontal cortex (PFC) proteome
T1 construct: Proteomes (human prefrontal cortex or cell membrane fractions); from tissue
T1 sequence (Q99685 1-303): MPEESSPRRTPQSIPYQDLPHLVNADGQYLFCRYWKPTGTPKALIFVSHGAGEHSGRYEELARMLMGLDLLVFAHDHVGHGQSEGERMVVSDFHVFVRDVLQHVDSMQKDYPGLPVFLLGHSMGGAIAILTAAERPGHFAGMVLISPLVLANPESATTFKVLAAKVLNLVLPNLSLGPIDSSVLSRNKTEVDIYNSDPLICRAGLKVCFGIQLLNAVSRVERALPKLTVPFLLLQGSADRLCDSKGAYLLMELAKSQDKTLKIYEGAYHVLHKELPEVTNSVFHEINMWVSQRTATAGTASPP
Protocol: (§1) In Vitro Competitive Activity-Based Protein Profiling.
(§2) Proteomes (human prefrontal cortex or cell membrane fractions) (50 μL, 1.0 mg/mL total protein concentration) were preincubated with varying concentrations of inhibitors at 37° C. After 30 min, FP-Rh or HT-01 (1.0 μL, 50 μM in DMSO) was added and the mixture was incubated for another 30 min at room temperature. Reactions were quenched with SDS loading buffer (15 μL-4×) and run on SDS-PAGE.

[2] = molecular target: T2, MGLL (Mus musculus, UniProt O35678); experiment: In vitro competitive activity-based protein profiling, mouse brain proteome (MGLL); parameters: IC50 MGLL Brain (Mouse, μM): scale not given here; conditions: for % Inh MGLL Brain (Mouse, μM): concentration not given (μM)
T2 construct: Brain; from tissue; host or cells: mouse brain proteome
T2 sequence (O35678 1-303): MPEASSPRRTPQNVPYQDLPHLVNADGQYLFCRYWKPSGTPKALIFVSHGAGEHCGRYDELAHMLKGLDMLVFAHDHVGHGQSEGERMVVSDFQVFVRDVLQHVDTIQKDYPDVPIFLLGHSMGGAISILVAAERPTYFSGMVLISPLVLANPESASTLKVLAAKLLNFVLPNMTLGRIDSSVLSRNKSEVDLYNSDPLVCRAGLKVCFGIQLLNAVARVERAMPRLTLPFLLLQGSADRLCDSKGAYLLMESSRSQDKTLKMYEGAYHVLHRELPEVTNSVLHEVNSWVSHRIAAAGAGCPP

[3] = molecular target: T3, ABHD6 (Mus musculus, UniProt Q8R2Y0); experiment: In vitro competitive activity-based protein profiling, mouse brain proteome (ABHD6); conditions: mouse brain proteome; concentration not given (μM)
T3 construct: Brain; from tissue; host or cells: mouse brain proteome
T3 sequence (Q8R2Y0 1-336): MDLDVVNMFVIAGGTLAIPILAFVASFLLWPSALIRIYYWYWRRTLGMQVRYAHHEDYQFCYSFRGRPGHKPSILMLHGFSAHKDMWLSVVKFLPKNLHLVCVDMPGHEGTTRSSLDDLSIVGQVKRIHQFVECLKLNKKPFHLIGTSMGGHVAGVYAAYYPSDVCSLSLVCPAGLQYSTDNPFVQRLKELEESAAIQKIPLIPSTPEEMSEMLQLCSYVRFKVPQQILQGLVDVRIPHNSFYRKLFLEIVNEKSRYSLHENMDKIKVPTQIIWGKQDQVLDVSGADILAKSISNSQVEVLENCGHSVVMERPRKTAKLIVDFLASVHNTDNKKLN
Protocol: [The source words this procedure for another target and reports this target under the same test.] as §1, §2

SMILES	% Inh MGLL PC3 (Human, μM) [1]	% Inh MGLL Brain (Mouse, μM) [2]	% Inh ABHD6 Brain (Mouse, μM) [3]	IC50 MGLL PFC (Human, μM) [1]	IC50 MGLL PC3 (Human, μM) [1]	% Inh MGLL PFC (Human, μM) [1]	IC50 MGLL Brain (Mouse, μM) [2]
N#Cc1ccc(C(=O)N2CCC3(CCN(C(=O)OC(C(F)(F)F)C(F)(F)F)CC3)C2)cc1C(F)(F)F [Example 12, 1,1,1,3,3,3-Hexafluoropropan-2-yl 2-(4-cyano-3-(trifluoromethyl)benzoyl)-2,8-diazaspiro[4.5]decane-8-carboxylate]		### (### is ≥75%)	### (### is ≥75%)		* * *	### (### is ≥75%)	
CN(Cc1ccc(C(F)(F)F)cc1N1CCC(C(=O)O)CC1)C1(C)CCN(C(=O)OC(C(F)(F)F)C(F)(F)F)CC1 [Example 14, 1-(2-(((1-(((1,1,1,3,3,3-Hexafluoropropan-2-yl)oxy)carbonyl)-4-methylpiperidin-4-yl)(methyl)amino)methyl)-5-(trifluoromethyl)phenyl)piperidine-4-carboxylic acid]		### (### is ≥75%)	### (### is ≥75%)		* * *	### (### is ≥75%)	
O=C(O)C1CN(c2cc(C(F)(F)F)ccc2CN2CC3(CCN(C(=O)OC(C(F)(F)F)C(F)(F)F)CC3)C2)CCO1 (centres unmarked) [Example 20, 4-(2-((7-(((1,1,1,3,3,3-Hexafluoropropan-2-yl)oxy)carbonyl)-2,7-diazaspiro[3.5]nonan-2-yl)methyl)-5-(trifluoromethyl)phenyl)morpholine-2-carboxylic acid]		### (### is ≥75%)	## (## is between 25 and 75%)	* * *	* * *	### (### is ≥75%)	* * *
O=C(O)c1cc(CN2CC3(CCN(C(=O)OC(C(F)(F)F)C(F)(F)F)CC3)C2)ccc1C(F)(F)F [Example 21, 5-((7-(((1,1,1,3,3,3-Hexafluoropropan-2-yl)oxy)carbonyl)-2,7-diazaspiro[3.5]nonan-2-yl)methyl)-2-(trifluoromethyl)benzoic acid]		### (### is ≥75%)	### (### is ≥75%)		* * *	### (### is ≥75%)	

The next lines start with the values.

% Inh MGLL PC3 (Human, μM) [1]	% Inh MGLL Brain (Mouse, μM) [2]	% Inh ABHD6 Brain (Mouse, μM) [3]	IC50 MGLL PFC (Human, μM) [1]	IC50 MGLL PC3 (Human, μM) [1]	% Inh MGLL PFC (Human, μM) [1]	IC50 MGLL Brain (Mouse, μM) [2]	SMILES
### (### is ≥75%)	### (### is ≥75%)	# (# is ≤25%)					O=C(O)C1CCN(Cc2cc(C(F)(F)F)ccc2C(=O)N2CCCC23CCN(C(=O)OC(C(F)(F)F)C(F)(F)F)CC3)CC1 [Example 10, 1-(2-(8-(((1,1,1,3,3,3-Hexafluoropropan-2-yl)oxy)carbonyl)-1,8-diazaspiro[4.5]decane-1-carbonyl)-5-(trifluoromethyl)benzyl)piperidine-4-carboxylic acid]
### (### is ≥75%)	### (### is ≥75%)	# (# is ≤25%)	* * *				O=C(O)C1CCN(Cc2cc(Cl)cc(C(=O)N3CCCC34CCN(C(=O)OC(C(F)(F)F)C(F)(F)F)CC4)c2)CC1 [Example 11, 1-(3-Chloro-5-(8-(((1,1,1,3,3,3-hexafluoropropan-2-yl)oxy)carbonyl)-1,8-diazaspiro[4.5]decane-1-carbonyl)benzyl)piperidine-4-carboxylic acid]
	### (### is ≥75%)	### (### is ≥75%)			### (### is ≥75%)	* * *	O=C(OC(C(F)(F)F)C(F)(F)F)N1CCC2(CCCN2C(=O)c2ccc(Cl)cc2)CC1 [Example 13, 1,1,1,3,3,3-Hexafluoropropan-2-yl 1-(4-chlorobenzoyl)-1,8-diazaspiro[4.5]decane-8-carboxylate]
